Consider 26 compounds from ChEMBL document CHEMBL1201862, “PubChem BioAssay data set” (2004).

Test systems include DLD-1; DMS-114; DMS-273; KM-20L2; LXFL 529; M19-MEL; RXF 631; SNB-78; HOP-18.
Common to all, as to test: inhibition of tumour cell growth, NCI panel, 48 h

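Step 1: Grow cells in 96-well plates. Step 2: Expose to compound for 48 hours at 5 concentrations. Step 3: Interpolate endpoints linearly; if unreached, use highest concentration. GI50 = concentration required for 50% inhibition of growth.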 Active and inactive are the calls of the source. Rule as the data show it: active = GI50 up to about 1.1 µM and inactive = higher.

Take `N=c1oc2cc(O)c(O)cc2cc1C(N)=O`: the GI50 with DLD-1, in the assay on DMS-114, with DMS-273, with KM-20L2, with LXFL 529 and in the assay with M19-MEL was > 100 µM (inactive) throughout. For the same compound, the GI50 in the assay on RXF 631 and in the assay on SNB-78 was > 100 µM (inactive) throughout.
As for `CN(NC1OC(CO)C(O)C(O)C1O)c1ccccc1` (stereo unspecified), the GI50 with DLD-1, in the assay on DMS-273, in the assay on HOP-18, in the assay with KM-20L2, with LXFL 529 and with M19-MEL was > 100 µM (inactive) in each case. In addition, the GI50 in the assay on SNB-78 is > 100 µM (inactive).
On to `O=C(/C=C/c1ccccc1O)c1cccs1`, for which the GI50 in the assay with DLD-1 is > 100 µM (inactive); in the assay on DMS-273, > 100 µM (inactive); in the assay on HOP-18, 57.7 µM (inactive); with KM-20L2, > 100 µM (inactive); in the assay on LXFL 529, > 100 µM (inactive); in the assay on M19-MEL, > 100 µM (inactive). Also, the GI50 in the assay on RXF 631 and in the assay on SNB-78 was > 100 µM (inactive) throughout.
Regarding `CCCn1cc2c(SC)nc(SC)nc2n1`, the GI50 with DLD-1, with DMS-114, in the assay with DMS-273, in the assay on HOP-18 and in the assay with SNB-78 was > 100 µM (inactive) in each case.
For `COc1ccc(C)cc1C1CCC(=O)O1` (stereo unspecified), the GI50 in the assay on DLD-1, with DMS-114, with DMS-273, in the assay with HOP-18, with KM-20L2 and in the assay on LXFL 529 was > 100 µM (inactive) each time. Besides, the GI50 in the assay with M19-MEL and in the assay with SNB-78 was > 100 µM (inactive) in each case.
Turning to `O=C1C(=O)N(c2cc(Cl)ccc2Cl)C(=O)C(=O)C1c1nc2ccccc2o1`, the GI50 with DLD-1 was > 100 µM (inactive); in the assay with DMS-114 it was > 89.1 µM (inactive); in the assay with DMS-273, > 100 µM (inactive); in the assay on HOP-18 it was 63.1 µM (inactive); with KM-20L2, > 100 µM (inactive); with LXFL 529, > 100 µM (inactive). The GI50 in the assay on M19-MEL, in the assay on RXF 631 and with SNB-78 was > 100 µM (inactive) in each case.
Regarding `CC1NOC(=O)C1/N=N/c1ccccc1Cl` (stereo unspecified), the GI50 in the assay with DLD-1 was 39.4 µM (inactive); in the assay with DMS-114, 34.7 µM (inactive); in the assay with HOP-18, 35 µM (inactive); in the assay on KM-20L2, 68.4 µM (inactive); in the assay with LXFL 529 it was 45.5 µM (inactive); in the assay on M19-MEL, 23 µM (inactive). The GI50 with RXF 631 is 37.1 µM (inactive); in the assay on SNB-78 it was 52.5 µM (inactive).
With `C/C(=C\c1ccccc1)C(O)C(=O)c1nc2ccc(Cl)cc2nc1O` (stereo unspecified), the GI50 in the assay with DLD-1 was > 100 µM (inactive); in the assay on DMS-114, 46.3 µM (inactive); in the assay on DMS-273, > 100 µM (inactive); in the assay on KM-20L2, > 100 µM (inactive); in the assay with LXFL 529 it was 84.5 µM (inactive); with M19-MEL, > 100 µM (inactive). In addition, in the assay on SNB-78, the GI50 was > 100 µM (inactive).
Regarding `CCCCCCCCCCCCCCCCCCOP(=O)([O-])OC1CC[N+](C)(C)CC1` [PERIFOSINE], the GI50 is 10.4 µM (inactive) in the assay on DLD-1; 12.5 µM (inactive) with DMS-114; 2.86 µM (inactive) with DMS-273; 2.24 µM (inactive) in the assay with KM-20L2; 4.03 µM (inactive) in the assay with LXFL 529; 4.01 µM (inactive) in the assay on M19-MEL. The GI50 with SNB-78 was 23.4 µM (inactive).
For the compound `COc1cccc(-c2nccc3c(OCc4ccccc4)c(OC)c(OC)cc23)c1`, the GI50 with DLD-1 was 7.74 µM (inactive); in the assay on DMS-114, 35.6 µM (inactive); with DMS-273 it was 27.2 µM (inactive); with KM-20L2, > 100 µM (inactive); in the assay with LXFL 529, 5.74 µM (inactive); in the assay with M19-MEL, > 100 µM (inactive). Further, in the assay on SNB-78, the GI50 is 63.1 µM (inactive).
Take `COc1cc([C@@H]2c3cc4c(cc3[C@@H](NC(=O)c3cccc(N)c3)C3COC(=O)[C@@H]32)OCO4)cc(OC)c1O` (stereo partly specified): the GI50 is 7.03 µM (inactive) with DLD-1; 0.968 µM (active) in the assay with DMS-114; 0.117 µM (active) in the assay on DMS-273; 2.97 µM (inactive) with KM-20L2; 13.1 µM (inactive) in the assay on LXFL 529; 3.41 µM (inactive) with M19-MEL. Moreover, the values for the GI50 with RXF 631 and in the assay with SNB-78 were 0.412 µM (active) and 3.92 µM (inactive), respectively.
`Oc1cccc2nc3cc(CN4CCOCC4)c(CN4CCOCC4)cc3nc12`: the GI50 in the assay on DLD-1 is 61 µM (inactive); in the assay with DMS-273, 54.7 µM (inactive); in the assay with HOP-18, 59.7 µM (inactive); in the assay with KM-20L2, 48.9 µM (inactive); in the assay on LXFL 529, 48.1 µM (inactive); in the assay with M19-MEL, 25.9 µM (inactive). The GI50 in the assay with RXF 631 is 56.4 µM (inactive); with SNB-78, > 100 µM (inactive).
For the compound `CN(C)/C(=N\C#N)N(Cc1ccccc1)Cc1ccccc1`, the GI50 with DLD-1 is 43.2 µM (inactive); in the assay with DMS-273, > 100 µM (inactive); in the assay on HOP-18 it was > 100 µM (inactive); in the assay on KM-20L2, > 100 µM (inactive); in the assay with LXFL 529, 56.5 µM (inactive); in the assay on M19-MEL, > 100 µM (inactive). The GI50 in the assay on SNB-78 was > 100 µM (inactive).
Regarding `CC(=O)c1ccc2c(c1)c1c(C)c3c[n+](C)ccc3c(C)c1n2C`, the GI50 in the assay with DLD-1 was 4.56 µM (inactive); in the assay with DMS-114, 2.14 µM (inactive); in the assay on DMS-273 it was 2.39 µM (inactive); in the assay on HOP-18, 17.2 µM (inactive); with KM-20L2, 17.1 µM (inactive); in the assay on M19-MEL, 4.79 µM (inactive). The GI50 in the assay on SNB-78 is 4.53 µM (inactive).
With `C[N+](C)(C)CC1CCc2ccccc2C1=O` (stereo unspecified), the GI50 with DLD-1 is 4.86 µM (inactive); in the assay with DMS-114, 13.5 µM (inactive); in the assay on DMS-273, 2.16 µM (inactive); in the assay with KM-20L2, 19.6 µM (inactive); in the assay with LXFL 529, 2.57 µM (inactive); in the assay on M19-MEL, 16 µM (inactive). Also, the GI50 in the assay with SNB-78 is 23.4 µM (inactive).
As to `Cc1nc(N)nn1C1OCC(O)C(O)C1O` (stereo unspecified), the GI50 in the assay with DLD-1, with DMS-114, in the assay on DMS-273, in the assay with KM-20L2, in the assay on LXFL 529 and in the assay with SNB-78 was > 100 µM (inactive) each time.
Consider `COc1cc2ccc3c4c(OC)cc(OC)c(OC)c4c([O-])[n+](C)c3c2cc1OC`, for which the GI50 with DMS-114 is 2.37 µM (inactive); in the assay with DMS-273 it was 0.428 µM (active); with HOP-18 it was > 100 µM (inactive); with KM-20L2, 9.38 µM (inactive); in the assay with LXFL 529, 1.79 µM (inactive); with M19-MEL, 6.46 µM (inactive). The GI50 in the assay with RXF 631 was > 100 µM (inactive); in the assay with SNB-78, 10.2 µM (inactive).
With `c1ccc(N2N=C(c3ccco3)CC2c2ccco2)cc1` (stereo unspecified), the GI50 in the assay with DMS-114 was 49.2 µM (inactive); with DMS-273, > 100 µM (inactive); with KM-20L2 it was > 100 µM (inactive); in the assay on LXFL 529, 64.1 µM (inactive); in the assay with M19-MEL it was > 100 µM (inactive); in the assay on SNB-78, > 100 µM (inactive).
On to `NC(=O)c1csc(CCCCCCc2nc(C(N)=O)cs2)n1`, for which the GI50 in the assay on DLD-1 was > 73.6 µM (inactive); in the assay on DMS-114 it was > 71.3 µM (inactive); in the assay with DMS-273, > 100 µM (inactive); in the assay with HOP-18, > 100 µM (inactive); with KM-20L2, > 100 µM (inactive); in the assay on LXFL 529 it was > 100 µM (inactive). For the same compound, the GI50 with M19-MEL was 18.7 µM (inactive); in the assay with RXF 631 it was > 100 µM (inactive); in the assay with SNB-78 it was > 100 µM (inactive).
With `CNC(C)Cc1ccc(O)cc1` (stereo unspecified), the GI50 in the assay with DLD-1, with DMS-114, with DMS-273, in the assay with HOP-18, in the assay on KM-20L2 and in the assay on LXFL 529 was > 100 µM (inactive) throughout. Moreover, the GI50 with RXF 631 and in the assay on SNB-78 was > 100 µM (inactive) throughout.
For the compound `O=C(c1ccccc1)c1c(CC(O)c2cccnc2)n(C(=O)c2ccccc2)c2ccccc12` (stereo unspecified), the GI50 in the assay with DMS-114 is 27.7 µM (inactive); in the assay with DMS-273, 28.2 µM (inactive); with KM-20L2 it was 21.3 µM (inactive); with M19-MEL, 19.7 µM (inactive).
Consider `COc1ccc(C2=CC3CCC2C3)cc1` (stereo unspecified), for which the GI50 is > 100 µM (inactive) in the assay on DLD-1; > 100 µM (inactive) in the assay with DMS-273; > 100 µM (inactive) in the assay on HOP-18; 0.0535 µM (active) in the assay on LXFL 529; > 100 µM (inactive) in the assay on SNB-78.
With `COCC1N=C(c2ccc(OC)c(OCc3ccccc3)c2OC)O[C@H]1c1ccccc1` (stereo partly specified), the GI50 is 20.6 µM (inactive) in the assay with DLD-1; 12.2 µM (inactive) with DMS-114; 15.8 µM (inactive) with DMS-273; 17.9 µM (inactive) with KM-20L2; 14.8 µM (inactive) with LXFL 529; 17.4 µM (inactive) in the assay with M19-MEL. Moreover, the GI50 in the assay with SNB-78 is 29.1 µM (inactive).
Consider `O=C(O)C1Cc2[nH]c3ccccc3c2C2CCCC12` (stereo unspecified), for which the GI50 with DLD-1, with DMS-114, in the assay with DMS-273, in the assay with KM-20L2, with LXFL 529 and in the assay on M19-MEL was > 100 µM (inactive) throughout. Moreover, the GI50 in the assay with SNB-78 was > 100 µM (inactive).
Take `CC(=O)NNc1nc(C)c(C(=O)NNC(=O)C(=O)Nc2ccc(Cl)cc2)s1`: the GI50 is > 100 µM (inactive) in the assay with KM-20L2, 34.7 µM (inactive) in the assay on LXFL 529, > 100 µM (inactive) with M19-MEL and > 100 µM (inactive) with SNB-78.
As to `C1=CC(=NN=P(c2ccccc2)(c2ccccc2)c2ccccc2)C=C1`, the GI50 with DLD-1 was > 100 µM (inactive); in the assay on DMS-114 it was 51.9 µM (inactive); with DMS-273 it was > 100 µM (inactive); in the assay with KM-20L2, > 100 µM (inactive); in the assay with LXFL 529, > 100 µM (inactive); in the assay on M19-MEL, > 100 µM (inactive).
